Patent US20180250260A1, “METHODS FOR TREATING CANCER” (BOSTON BIOMEDICAL, INC., priority 2015, published 2018)
Where “and” joins values, the source holds several entries; their conditions need not be identical. Equal entries are not always repeated. Entries after “also recorded” stand apart in the source; their conditions may differ.

What was measured:
p-Stat3 = test: Cancer stemness biomarker immunofluorescence in cancer xenograft tumors: p-Stat3; type: in vivo, mouse xenograft
Procedure: (§1) The effects of 2-acetylnaphtho[2,3-b]furan-4,9-dione, a compound of formula (I), on cancer stem cell markers was examined in cancer xenograft models with and without irinotecan. Human cancer cells were subcutaneously implanted into the right flank of 5-7 weeks old female athymic nude mice. When tumor size reached 200 mm^3, animals were treated with 2-acetylnaphtho[2,3-b]furan-4,9-dione, irinotecan, or a combination of 2-acetylnaphtho[2,3-b]furan-4,9-dione and irinotecan. Tumors were harvested after first dosing.
(§2) The harvested tissues were fixed in 3.7% neutral buffered formaldehyde at 4° C. for overnight. The paraffin was embedded, cut to about 5 microns, and affixed onto positively-charged slides. After being baked and de-paraffinized, the slides with tumor or control tissues were incubated in 10 mM Sodium Citrate (pH 6.0) for 10 minutes. After antigen retrieval, slides were probed with primary antibodies P-STAT3 (rabbit, Cell Signaling, 1:100), 13-Catenine (mouse, Santa Cruz, 1:400) at 4° C. overnight, and then Alexa Fluor fluorescent dyes-conjugated secondary antibodies (1:500, Invitrogen). After mounting, the slides with ProLong mounting medium with DAPI (Invitrogen) were examined under a Zeiss fluorescence microscope with 20× objective, and analyzed with Zen software.

[1] = system: advanced gastrointestinal cancer, including CRC and gastric cancer; test: Phase Ib open-label multi-center study, anti-tumor activity (RECIST 1.1); type: in vivo, human; parameters: key to Best Response (RECIST 1.1): partial response (PR); stable disease (SD)
Procedure: (§3) The effects of 2-acetylnaphtho[2,3-b]furan-4,9-dione in combination with FOLFIRI in patients with advanced gastrointestinal cancer, including CRC and gastric cancer, were studied in phase lb open-label, multi-center studies. In one phase lb open label, multi-center clinical study, the safety, tolerability, and preliminary anti-tumor activity of 2-acetylnaphtho[2,3-b]furan-4,9-dione in combination with FOLFIRI, with and without bevacizumab, were assessed in adult patients with advanced gastrointestinal cancer, including CRC and gastric cancer. In addition, the pharmacokinetic profile and the pharmacodynamics (biomarkers) of 2-acetylnaphtho[2,3-b]furan-4,9-dione in combination with FOLFIRI, with and without bevacizumab, were studied, and the recommended phase II dose (RP2D) of 2-acetylnaphtho[2,3-b]furan-4,9-dione and FOLFIRI, with or without bevacizumab, were evaluated.
In total, as of April 2015, 18 patients aged 40-72 were enrolled in the open label, multi-center, phase lb study (see Table 2). These patients were pretreated with an average of >3 prior lines of therapy. Of this group, 10 patients (56%) previously progressed on FOLFIRI.
Of the 17 patients evaluable for response, 8 patients received 2-acetylnaphtho[2,3-b]furan-4,9-dione in combination with FOLFIRI and 9 patients received 2-acetylnaphtho[2,3-b]furan-4,9-dione in combination with FOLFIRI and bevacizumab (see FIG. 7).
(§4) Patients received continuous oral administration of 2-acetylnaphtho[2,3-b]furan-4,9-dione twice daily in 28 day cycles. A FOLFIRI regimen was administered (with or without bevacizumab depending on patient) every 14 days. Specifically, 2-acetylnaphtho[2,3-b]furan-4,9-dione was administered at a dose of 240 mg BID in combination with FOLFIRI (5-FU 400 mg/m^2 bolus with 2400 mg/m^2, irinotecan 180 mg/m^2, and leucovorin 400 mg/m^2 infusion) with or without bevacizumab 5 mg/kg, administered bi-weekly until progression of disease, unacceptable toxicity, or other discontinuation criterion was met.
(§5) Pharmacokinetics and pharmacodynamics were evaluated and objective tumor response was assessed every 8 weeks using Response Evaluation Criteria In Solid Tumors (RECIST 1.1).

β-catenin = test: Cancer stemness biomarker immunofluorescence in cancer xenograft tumors: β-catenin; type: in vivo
Procedure: as §1, §2

cancer stem cells = test: Effect on cancer stem cells with and without 5-fluorouracil; type: cell-based; settings: FIG. 5
From the text: The effects of 2-acetylnaphtho[2,3-b]furan-4,9-dione was examined in cancer stem cells with and without 5-fluorouracil by using methods similar to those disclosed in U.S. pre-grant Publication No. 2012/0252763, Example 3.

[2] = Phase Ib open-label multi-center study, safety and tolerability (adverse events); type: in vivo, human; settings: 240 mg BID with FOLFIRI, with and without bevacizumab
Procedure: as §3, §4

[3] = Phase Ib open-label multi-center study, pharmacokinetics; type: in vivo, human; settings: 240 mg BID with FOLFIRI, with and without bevacizumab
Procedure: as §3, §5

[4] = added to irinotecan, cancer xenograft tumor model, FIG. 6
[5] = alone, human colon cancer xenograft tumor (SW480) in nude mice, FIG. 4
[6] = 240 mg BID with FOLFIRI, with and without bevacizumab, 17 evaluable patients
[7] = individual patients, 240 mg BID with chemotherapy backbone FOLFIRI
[8] = individual patients, 240 mg BID with chemotherapy backbone FOLFIRI/Bev
[9] = N = 18, possibly/probably/definitely related

CC(=O)c1cc2c(o1)C(=O)c1ccccc1C2=O [2-acetylnaphtho[2,3-b]furan-4,9-dione]
irinotecan-enhanced staining for stem cell marker p-Stat3 (p-Stat3; [4]): attenuated
expression of p-Stat3 stem cell marker (p-Stat3; [5]): dramatically reduced
regression in the PR patients (RECIST 1.1) ([1]; 240 mg BID with FOLFIRI, with and without bevacizumab): 44% and 33%
patients with prolonged SD of ≥6 month ([1]; 240 mg BID with FOLFIRI, with and without bevacizumab, 7 of 17 patients): 41%
evaluable patients with prolonged SD (>6 months) ([1]; 240 mg BID with FOLFIRI, with and without bevacizumab, 10 of 17): 59%
evaluable patients with reduced target lesions ([1]; 240 mg BID with FOLFIRI, with and without bevacizumab, 15 of 17, FIG. 7): 88%
number of patients with PR (RECIST 1.1) [1, 6]: 2
number of patients with SD [1, 6]: 14
patients in whom anti-cancer activity was observed ([1]; 240 mg BID with FOLFIRI, with and without bevacizumab, advanced CRC who had failed prior standard chemotherapy): 94%
median progression-free survival (PFS) ([1]; 240 mg BID with FOLFIRI, with and without bevacizumab, evaluable patients): 5.72 months
overall survival of patients with higher expression levels of Stat3 (pStat3) before treatment ([1]; clinical trials, at least in CRC patients): prolonged overall survival
response of a patient with gastric adenocarcinoma with a metastatic lesion in the liver ([1]; combination with FOLFIRI for 8 weeks, failed prior epirubicin, oxaliplatin and Xeloda, FIG. 8): complete response
median survival of pStat3-positive patients compared to pStat3-negative patients ([1]; in combination with FOLFIRI and bevacizumab): longer median survival
Best Response (RECIST 1.1) [1, 7]: SD (4×) and PR (3×)
Comment on course of disease [1, 7]: prolonged stable disease; also recorded: unequivocal progression; also recorded: prolonged stable disease,; also recorded: prolonged SD/PR,
Weeks on Study [1, 7]: 25 weeks and 17 weeks (2×) and 16 weeks and 6 weeks and 3 weeks and 34+ weeks and 32+ weeks and 36 weeks
tumor growth [1, 7]: 8% tumor growth, and 3% tumor growth
tumor regression [1, 7]: 19% tumor regression, and 44% tumor regression and 23% tumor regression and 17 tumor regression, % and 40% tumor regression, and 83% tumor regression,
Best Response (RECIST 1.1) [1, 8]: SD
Comment on course of disease [1, 8]: prolonged stable disease,; also recorded: prolonged stable disease
Weeks on Study [1, 8]: 85+ weeks and 29 weeks and 24 weeks and 18 weeks and 15 weeks and 14 weeks and 25 weeks (2×) and 42 weeks
tumor regression [1, 8]: 25% tumor regression, and 14% tumor regression, and 18% tumor regression, and 4% tumor regression and 10% tumor regression and 21% tumor regression and 1% tumor regression; and 4% tumor regression; and 18% tumor regression;
lesion formations in patients previously exposed to FOLFIRI but experiencing progression ([1]; with bi-weekly FOLFIRI with or without bevacizumab): reduced lesion formations in almost all of the patients
irinotecan-enhanced staining for stem cell marker β-catenin (β-catenin; [4]): attenuated
expression of β-catenin stem cell marker (β-catenin; [5]): dramatically reduced
5-fluorouracil-induced increase in the number of cancer stem cells (cancer stem cells; added to 5-fluorouracil): attenuated
effect of the combination on cancer stem cell growth (cancer stem cells; combination with 5-fluorouracil): greater than additive effect
Dehydration Grade 3 related to protocol therapy, number of patients [2]: 1
dose limiting toxicity or new adverse events [2]: No dose limiting toxicity or new adverse events were seen
safety of the combination [2]: safely combined
Abdominal Pain Grade 1, number of subjects [2, 9]: 7
Abdominal Pain Grade 1, percent of total subjects [2, 9]: 38.9%
Abdominal Pain Grade 2, number of subjects [2, 9]: 4
Abdominal Pain Grade 2, percent of total subjects [2, 9]: 22.2%
Abdominal Pain Grade 3, number of subjects [2, 9]: 0
Abdominal Pain Grade 3, percent of total subjects [2, 9]: 0.0%
Alopeda Grade 1, number of subjects [2, 9]: 4
Alopeda Grade 1, percent of total subjects [2, 9]: 22.2%
Alopeda Grade 2, number of subjects [2, 9]: 0
Alopeda Grade 2, percent of total subjects [2, 9]: 0.0%
Alopeda Grade 3, number of subjects [2, 9]: 0
Alopeda Grade 3, percent of total subjects [2, 9]: 0.0%
Anemia Grade 1, number of subjects [2, 9]: 2
Anemia Grade 1, percent of total subjects [2, 9]: 11.1%
Anemia Grade 2, number of subjects [2, 9]: 2
Anemia Grade 2, percent of total subjects [2, 9]: 11.1%
Anemia Grade 3, number of subjects [2, 9]: 0
Anemia Grade 3, percent of total subjects [2, 9]: 0.0%
Anorexia Grade 1, number of subjects [2, 9]: 12
Anorexia Grade 1, percent of total subjects [2, 9]: 66.7%
Anorexia Grade 2, number of subjects [2, 9]: 3
Anorexia Grade 2, percent of total subjects [2, 9]: 16.7%
Anorexia Grade 3, number of subjects [2, 9]: 0
Anorexia Grade 3, percent of total subjects [2, 9]: 0.0%
Diarrhea Grade 1, number of subjects [2, 9]: 18
Diarrhea Grade 1, percent of total subjects [2, 9]: 100.0%
Diarrhea Grade 2, number of subjects [2, 9]: 9
Diarrhea Grade 2, percent of total subjects [2, 9]: 50.0%
Diarrhea Grade 3, number of subjects [2, 9]: 3
Diarrhea Grade 3, percent of total subjects [2, 9]: 16.7%
Dry Mouth Grade 1, number of subjects [2, 9]: 2
Dry Mouth Grade 1, percent of total subjects [2, 9]: 11.1%
Dry Mouth Grade 2, number of subjects [2, 9]: 1
Dry Mouth Grade 2, percent of total subjects [2, 9]: 5.6%
Dry Mouth Grade 3, number of subjects [2, 9]: 0
Dry Mouth Grade 3, percent of total subjects [2, 9]: 0.0%
Dysgeusia Grade 1, number of subjects [2, 9]: 5
Dysgeusia Grade 1, percent of total subjects [2, 9]: 27.8%
Dysgeusia Grade 2, number of subjects [2, 9]: 0
Dysgeusia Grade 2, percent of total subjects [2, 9]: 0.0%
Dysgeusia Grade 3, number of subjects [2, 9]: 0
Dysgeusia Grade 3, percent of total subjects [2, 9]: 0.0%
Fatigue Grade 1, number of subjects [2, 9]: 12
Fatigue Grade 1, percent of total subjects [2, 9]: 66.7%
Fatigue Grade 2, number of subjects [2, 9]: 10
Fatigue Grade 2, percent of total subjects [2, 9]: 55.6%
Fatigue Grade 3, number of subjects [2, 9]: 3
Fatigue Grade 3, percent of total subjects [2, 9]: 16.7%
Flatulence Grade 1, number of subjects [2, 9]: 2
Flatulence Grade 1, percent of total subjects [2, 9]: 11.1%
Flatulence Grade 2, number of subjects [2, 9]: 1
Flatulence Grade 2, percent of total subjects [2, 9]: 5.6%
Flatulence Grade 3, number of subjects [2, 9]: 0
Flatulence Grade 3, percent of total subjects [2, 9]: 0.0%
Nausea Grade 1, number of subjects [2, 9]: 14
Nausea Grade 1, percent of total subjects [2, 9]: 77.8%
Nausea Grade 2, number of subjects [2, 9]: 6
Nausea Grade 2, percent of total subjects [2, 9]: 33.3%
Nausea Grade 3, number of subjects [2, 9]: 0
Nausea Grade 3, percent of total subjects [2, 9]: 0.0%
Neutropenia Grade 1, number of subjects [2, 9]: 3
Neutropenia Grade 1, percent of total subjects [2, 9]: 16.7%
Neutropenia Grade 2, number of subjects [2, 9]: 2
Neutropenia Grade 2, percent of total subjects [2, 9]: 11.1%
Neutropenia Grade 3, number of subjects [2, 9]: 0
Neutropenia Grade 3, percent of total subjects [2, 9]: 0.0%
Platelet Count Grade 1, number of subjects [2, 9]: 2
Platelet Count Grade 1, percent of total subjects [2, 9]: 11.1%
Platelet Count Grade 2, number of subjects [2, 9]: 0
Platelet Count Grade 2, percent of total subjects [2, 9]: 0.0%
Platelet Count Grade 3, number of subjects [2, 9]: 0
Platelet Count Grade 3, percent of total subjects [2, 9]: 0.0%
Urine Discolorization Grade 1, number of subjects [2, 9]: 4
Urine Discolorization Grade 1, percent of total subjects [2, 9]: 22.2%
Urine Discolorization Grade 2, number of subjects [2, 9]: 0
Urine Discolorization Grade 2, percent of total subjects [2, 9]: 0.0%
Urine Discolorization Grade 3, number of subjects [2, 9]: 0
Urine Discolorization Grade 3, percent of total subjects [2, 9]: 0.0%
Vomiting Grade 1, number of subjects [2, 9]: 11
Vomiting Grade 1, percent of total subjects [2, 9]: 61.1%
Vomiting Grade 2, number of subjects [2, 9]: 3
Vomiting Grade 2, percent of total subjects [2, 9]: 16.7%
Vomiting Grade 3, number of subjects [2, 9]: 0
Vomiting Grade 3, percent of total subjects [2, 9]: 0.0%
Weight Loss Grade 1, number of subjects [2, 9]: 2
Weight Loss Grade 1, percent of total subjects [2, 9]: 11.1%
Weight Loss Grade 2, number of subjects [2, 9]: 0
Weight Loss Grade 2, percent of total subjects [2, 9]: 0.0%
Weight Loss Grade 3, number of subjects [2, 9]: 0
Weight Loss Grade 3, percent of total subjects [2, 9]: 0.0%
pharmacokinetic interactions [3]: No significant pharmacokinetic interactions were observed
